Experimental data published in patent US7498311B2, “Treatment of migraine” (New England Medical Center Hospitals, Inc., priority 1995, dated 2009).

Test system: migraine episodes in epileptic patients
Test: Anti-migraine activity in epileptic patients (two case reports, daily topiramate)
Type: in vivo, human
Source text: Patient 1, an epileptic, suffered from complex partial seizures and frequent episodes of migraine, some of which were temporally related to their seizures. Seizures and migraines were incompletely responsive to large doses of calcium channel blockers added to their anti-epileptic drug regimen. Patient 2 suffered from complex partial seizures and frequent, severe migraine episodes, requiring regular use of sumatripan. Patient 1 took topiramate daily for 18 months. Patient 2 took topiramate daily for 10 months.

**Q.** How did the “improvement in migrainous episodes” value (Patient 1 (epileptic, complex partial seizures, frequent migraine), 600 mg/d) turn out when `CC1(C)O[C@@H]2[C@@H](CO[C@@]3(COS(N)(=O)=O)OC(C)(C)O[C@@H]23)O1` [topiramate, 2,3:4,5-bis-O-(1-methylethydine)-β-D-fructopyranose sulfamate] was run?
**A.** The value was “substantial improvement in migrainous episodes”.

**Q.** And the migrainous episodes (Patient 1, after taking 800 mg/d, verapamil, nimodipine and cimetidine withdrawn)?
**A.** The migrainous episodes was “had not experienced any migrainous episodes”.

**Q.** And the adverse effects (Patient 1, daily for 18 months)?
**A.** Its adverse effects is “did not experience any adverse effects”.

**Q.** What about the “control of migraine episodes” value (Patient 1, daily for 18 months, except for one migrainous aura, all calcium channel blockers withdrawn) of the same compound?
**A.** Its value is “nearly completely controlled”.

**Q.** And the “improvement of migraine headaches” value (Patient 2 (epileptic, complex partial seizures, frequent severe migraine), 400 mg/d)?
**A.** The value was “substantial improvement of their migraine headaches”.

**Q.** What about the “frequency of migraine headaches” value (Patient 2, after taking 200 mg/d) of the same compound?
**A.** The value was “substantially less frequent migraine headaches”.

**Q.** And the “migraine status after the sixth month” value (Patient 2, daily for 10 months)?
**A.** The value was “migraine-free thereafter until the tenth month”.

**Q.** And the “migraine episodes in the fifth and sixth months of use” value (Patient 2, during brief cessation of their propanolol therapy)?
**A.** Its value is “several episodes of basilar migraine without headache”.

**Q.** And the “use of sumatriptan rescue medication” value (Patient 2, once taking 300 mg/d)?
**A.** The value was “eliminating the average use of 2 administrations of sumatriptan per week”.
